According to US9134313B2, “Method of detecting colorectal cancer of stages 0 to I” (Tokyo Metropolitan Organization For Medical Research, priority 2003, dated 2015):

System: anti-DiAcSpm antibody Code No. NZW 2
Assay: Cross-reactivity of affinity-purified anti-DiAcSpm antibody with urinary DiAcSpm analogues
Assay type: binding, rabbit
Conditions: for Cross-reactivity (1)x(2) %: cross-reactivity multiplied by abundance in urine: interference on urinary DiAcSpm determination; for KiDiAcSpm/Ki"s"(%) (1): cross-reactivity of antibody NZW 2 with each polyamine, DiAcSpm = 100
Description: The antibody of the invention has one or both of the following properties: (i) its cross-reactivity with N^1-AcSpd (which is present in urine as a DiAcSpm analogue in an amount about 30-times greater than DiAcSpm) is 0.1% or less; (ii) total interference on the measurement results caused by its cross-reaction with DiAcSpm analogues present in urine is 5% or less. The numerical value mentioned in (i) above is a value showing the nature of the antibody. The numerical value mentioned in (ii) above is a value obtained by multiplying cross-reactivity itself by the abundance of these analogues in urine; this value can be an indicator showing how much interference these analogues would give actually on the quantitative determination of DiAcSpm.
Step-wise affinity purification was carried out to examine whether specific antibodies with sufficient purity applicable to a urinary DiAcSpm measuring system can be obtained. The affinity purification was carried out step-wise based on the method of Kawakita et al. (Hiramatsu, K. et al., J. Biochem., 124, 231-236 (1998)), using DiAcSpm column and DiSpd column prepared by derivatizing carboxy-Toyopearl with AcSpm and N8-AcSpd (FIG. 3).
Further, the total interference on the measurement results caused by the cross-reaction of this antibody with DiAcSpm analogues present in urine was 2.9%; thus, cross-reactivity of 5% or less was achieved (FIG. 4, Table 3).

With `CC(=O)NCCCNCCCCNCCCN` [AcSpm, monoacetylspermine] the “Cross-reactivity (1)x(2) %” value was 0.131% and the “KiDiAcSpm/Ki"s"(%) (1)” value was 0.418%.

With `CC(=O)NCCCCNCCCNC(C)=O` [DiAcSpd, N^1,N^8-diacetylspermidine] the “Cross-reactivity (1)x(2) %” value was 0.094% and the “KiDiAcSpm/Ki"s"(%) (1)” value was 0.032%.

In the case of `CC(=O)NCCCNCCCCNCCCNC(C)=O` [DiAcSpm, N^1,N^12-diacetylspermine], the “Cross-reactivity (1)x(2) %” value is reported as 100% and the “KiDiAcSpm/Ki"s"(%) (1)” value is reported as 100%.

With `CC(=O)NCCCNCCCCN` [N1-AcSpd, N^1-Ac-Spermidine] the “Cross-reactivity (1)x(2) %” value was 2.65%, the “KiDiAcSpm/Ki"s"(%) (1)” value was 0.100% and the “KiDiAcSpm/Ki"s"(%) (1)” value (listed as N^1-AcSpd) was ≤ 0.1%.

`CC(=O)NCCCCNCCCN` [N8-AcSpd, N^8-Ac-Spermidine] was tested, and the “Cross-reactivity (1)x(2) %” value was 0.024% and the “KiDiAcSpm/Ki"s"(%) (1)” value was 0.001%.
